# According to patent US20220331333A1, “RHOA PATHWAY INHIBITOR IN THE TREATMENT OF NEURODEVELOPMENTAL DISORDER OR NEUROPSYCHIATRIC DISORDER” (UNIVERSITE DE STRASBOURG, priority 2021, published 2022):
# Key:
# Kctd13^+/− mouse model [1] = experiment: Novel object recognition (NOR) test after chronic fasudil treatment, Kctd13+/− line; assay type: in vivo; conditions: Kctd13+/− mice, 100 mg/kg/day orally in drinking water, tested at 19 weeks, 3 h retention delay
# Experimental: (§1) In this study, the inventors developed a protocol for a pre-clinical treatment (FIG. 1) with the drug fasudil hydrochloride or HA1077 ([…], LC laboratories Boston, Mass., USA). […] Animal bedding was changed once a week. At 11 weeks, animals were transferred from the animal facility to the phenotyping area. The temperature was kept at 21±2° C., and the light cycle was controlled as 12 h light and 12 h dark. At 12 weeks of age, three independent cohorts of mice for each line, with wild-type (wt) and mutant littermates, were subjected to a battery of behavioral tests (see below) for 2 weeks. […] The dose was estimated to 152.7 mg in feeding bottle (250 ml) changed twice a week considering the previous study in which the drinking volume was evaluated to about 4.6 ml/day/mouse. […] During each session the exploration activity was analyzed by measuring the total distance travelled, evaluated the adaptation of the mice to the environment over time, by splitting the data in intervals of 10 minutes and assessed the vertical activity through the number of rears. […] The exploration time of both objects A was recorded. […] The exploration time of the two objects (familiar object and novel object) was recorded. […] Data from behavioral characterization of Kctd13^+/- and 16p11.2 Del/+ mouse models were analyzed through the Student t-test (see supplementary table 1 and table 2 as a summary). […]
# [2] = system: phosphorylated form of MLC (P-MLC); experiment: Western blot of phosphorylated MLC in hippocampal lysates, Kctd13+/− line; assay type: in vivo, mouse; conditions: Kctd13+/− mutant mice, fasudil for 6 weeks, 18-week-old mice
# Experimental: (§2) At 12 weeks of age, three independent cohorts of mice for each line, with wild-type (wt) and mutant littermates, were subjected to a battery of behavioral tests (see below) for 2 weeks. Then, 14 weeks old mice were randomly divided into 2 groups: one treated with fasudil administrated orally ad libitum in drinking water to reach a dose of 100 mg/kg/day and a second with no treatment. The dose was estimated to 152.7 mg in feeding bottle (250 ml) changed twice a week considering the previous study in which the drinking volume was evaluated to about 4.6 ml/day/mouse. […]
# (§3) Fresh hippocampal tissues were isolated by rapid decapitation/dissection of naive mice and snap frozen. […] Protein concentration was determined by Pierce™ BCA Protein Assay Kit (23225, Thermo Fisher Scientific, Strasbourg). […] Total levels of RHOA protein and Myosin Light Chain phosphorylation by Myosin Light Chain Kinase via RHOA pathway were analyzed using Western Blot. […] Signals were quantified using ImageJ and analyzed using Microsoft Excel and GraphPad Prism. […] The ratio of protein level or phosphorylation level against control β-actin protein level (detected with a mouse monoclonal Anti-βActin-Peroxidase antibody (A3854 Sigma)) was normalized to untreated wt sample mean. […]
# [3] = system: phosphorylated form of MLC (P-MLC); experiment: Western blot of phosphorylated MLC in hippocampal lysates, 16p11.2 Del/+ line; assay type: in vivo, mouse; conditions: fasudil for 6 weeks, 18-week-old mice
# Experimental: as §2, §3
# [4] = system: 16p11.2 Del/+ mouse model; experiment: Open field test after chronic fasudil treatment, 16p11.2 Del/+ line; assay type: in vivo; conditions: 16p11.2 Del/+ and wt littermates, 100 mg/kg/day orally in drinking water, 4 weeks
# Experimental: as §1
# RHOA [5] = experiment: Western blot of RHOA in hippocampal lysates, Kctd13+/− line; assay type: in vivo, mouse; conditions: fasudil for 6 weeks, 18-week-old mice
# Experimental: as §2, §3
# RHOA [6] = experiment: Western blot of RHOA in hippocampal lysates, 16p11.2 Del/+ line; assay type: in vivo, mouse; conditions: fasudil for 6 weeks, 18-week-old mice
# Experimental: as §2, §3
# [7] = system: 16p11.2 Del/+ mouse model; experiment: Novel object recognition (NOR) test after chronic fasudil treatment, 16p11.2 Del/+ line; assay type: in vivo; conditions: 16p11.2 Del/+ mice, 100 mg/kg/day orally in drinking water, tested at 19 weeks, 3 h retention delay
# Experimental: as §1
# Kctd13^+/− mouse model [8] = experiment: Open field test after chronic fasudil treatment, Kctd13+/− line; assay type: in vivo; conditions: Kctd13+/− and wt littermates, 100 mg/kg/day orally in drinking water, 4 weeks
# Experimental: as §1
smiles,measurement,setting,value
"O=S(=O)(c1cccc2cnccc12)N1CCCNCC1 [fasudil, hexahydro-1-(5-isoquinolinesulfonyl)-1H-1,4-diazepine]",novel object recognition (recognition index vs 50% chance level),Kctd13^+/− mouse model [1],significantly improved the NOR defect
same,MLC phosphorylation levels in hippocampus,[2],reduced MLC phosphorylation levels
same,MLC phosphorylation levels in hippocampus,[3]; 16p11.2 Del/+ mutant mice,restored a normal MLC phosphorylation
same,MLC phosphorylation levels in hippocampus,[3]; wt littermates of the 16p11.2 Del/+ line,induced increased MLC phosphorylation in wt mice
same,vertical activity (number of rears) in open field,[4],did not have effect on any genotype for the vertical activity
same,locomotor exploration activity (total distance travelled) in open field,[4]; treated vs non-treated,did not change the locomotor exploration activity
same,RHOA protein levels in hippocampus,RHOA [5],did not cause changes in RHOA protein levels
same,RHOA protein levels in hippocampus,RHOA [6],did not cause changes in RHOA protein levels
same,novel object recognition (recognition index vs 50% chance level),[7],significantly improved the NOR defect
same,vertical activity (number of rears) in open field,Kctd13^+/− mouse model [8],did not have effect on any genotype for the vertical activity
same,locomotor exploration activity (total distance travelled) in open field,Kctd13^+/− mouse model [8]; treated vs non-treated,did not change the locomotor exploration activity
